Measurements as given in article PMC10180076, “Novel Biologically Active N-Substituted Benzimidazole Derived Schiff Bases: Design, Synthesis, and Biological Evaluation” (Molecules, 2023).
≈ marks a conversion by molar mass, not a printed value.

Columns and labels:
[1] = test system: DND-41, acute lymphoblastic leukemia; assay: Proliferation assay (MTS, 72 h), DND-41; format: cell-based, human; conditions: Homo sapiens, DND41
Text: (§1) Human cancer cells used in this manuscript, namely Capan-1, HCT-116, NCI-H460, LN-229, HL-60, K-562, and Z-138, were acquired from the American Type Culture Collection (ATCC, Manassas, VA, USA), while the DND-41 cell line was purchased from the Deutsche Sammlung von Mikroorganismen und Zellkulturen (DSMZ Leibniz-Institut, Braunschweig, Germany). Culture media were purchased from Gibco Life Technologies, Merelbeke, Belgium, and supplemented with 10% fetal bovine serum (HyClone, Cytiva, Marlborough, MA, USA). Vincristine and docetaxel, which were used as the reference inhibitors, were purchased from Selleckchem (Munich, Germany). Stock solutions were prepared in DMSO.
(§2) Adherent cell lines LN-229, HCT-116, and NCI-H460 and Capan-1 cells were seeded at a density between 500 and 1500 cells per well, in 384-well tissue culture plates (Greiner, Kremsmünster, Austria). After overnight incubation, the cells were treated with seven different concentrations of the test compounds, ranging from 100 to 0.006 µM.
(§3) Suspension cell lines HL-60, K-562, Z-138, and DND-41 were seeded at densities ranging from 2500 to 5500 cells per well in 384-well culture plates containing the test compounds at the same concentration points. The cells were incubated for 72 h with the compounds and were then analyzed using the CellTiter 96® AQueous One Solution Cell Proliferation Assay (MTS) reagent (Promega, Madison, WI, USA) according to the manufacturer’s instructions. […] The compounds were tested in two independent experiments.

[2] = test system: yellow fever virus (YFV 17D); assay: microbe, parasite or virus in culture; format: cell-based; conditions: Huh-7, read-out: Antiviral Activity (EC50/μM) YFV 17D Huh-7
Zika virus (Mr776) = assay: Antiviral CPE reduction assay, Zika virus in Huh-7; format: cell-based; conditions: Huh-7 cells, 100 CCID50, MTS
[3] = test system: herpes simplex virus-1 (HSV-1 KOS); assay: Antiviral CPE reduction assay, HSV-1 KOS in HEL 299; format: cell-based; conditions: Human alphaherpesvirus 1; HEL 299 cells, 100 CCID50, MTS
[4] = test system: influenza B (B/Ned/537/05); assay: Antiviral CPE reduction assay, influenza B in MDCK; format: cell-based; conditions: Influenza B virus; MDCK cells, 100 CCID50, MTS
NCI-H460, lung carcinoma = assay: Proliferation assay (MTS, 72 h), NCI-H460; format: cell-based, human; conditions: Homo sapiens, NCI-H460
Text: as §1, §2, §3

[5] = test system: HCT-116, colorectal carcinoma; assay: Proliferation assay (MTS, 72 h), HCT-116; format: cell-based, human; conditions: Homo sapiens, HCT-116
Text: as §1, §2, §3

[6] = test system: respiratory syncytial virus A (Long); assay: Antiviral CPE reduction assay, RSV A in HEL 299; format: cell-based; conditions: human respiratory syncytial virus; HEL 299 cells, 100 CCID50, MTS
[7] = test system: human coronavirus HCoV-NL63; assay: Antiviral CPE reduction assay, HCoV-NL63 in Huh-7; format: cell-based; conditions: Huh-7 cells, 100 CCID50, MTS
[8] = test system: influenza A/H1N1 (A/Ned/378/05); assay: Antiviral CPE reduction assay, influenza A/H1N1 in MDCK; format: cell-based; conditions: Influenza A virus, MDCK cells, 100 CCID50, MTS
[9] = test system: Z-138, non-Hodgkin lymphoma; assay: Proliferation assay (MTS, 72 h), Z-138; format: cell-based, human; conditions: Homo sapiens, Z-138
Text: as §1, §2, §3

[10] = test system: HL-60, acute myeloid leukemia; assay: Proliferation assay (MTS, 72 h), HL-60; format: cell-based, human; conditions: Homo sapiens, HL-60
Text: as §1, §2, §3

[11] = test system: human coronavirus HCoV-OC43; assay: microbe, parasite or virus in culture; format: cell-based; conditions: Betacoronavirus 1, OC43; HEL 299 cells, 100 CCID50, MTS; read-out: Antiviral Activity (EC50/μM) HCoV OC43 HEL 299
[12] = test system: influenza A/H3N2 (A/HK/7/87); assay: Antiviral CPE reduction assay, influenza A/H3N2 in MDCK; format: cell-based; conditions: Influenza A virus, MDCK cells, 100 CCID50, MTS
in vitro [13] = conditions: human
in vitro [14] = conditions: dog
LN-229, glioblastoma = assay: Proliferation assay (MTS, 72 h), LN-229; format: cell-based, human; conditions: Homo sapiens, LN-229
Text: as §1, §2, §3

[15] = test system: K-562, chronic myeloid leukemia; assay: Proliferation assay (MTS, 72 h), K-562; format: cell-based, human; conditions: Homo sapiens, K562
Text: as §1, §2, §3

in vitro [16] = conditions: human; remark: listed apart in the source
sindbis virus = assay: Antiviral CPE reduction assay, Sindbis virus in Huh-7; format: cell-based; conditions: Huh-7 cells, 100 CCID50, MTS
[17] = test system: human coronavirus HCoV-229E; assay: organism not typed; format: cell-based; conditions: HEL 299 cells, 100 CCID50, MTS; read-out: Antiviral Activity (EC50/μM) HCoV 229E HEL 299
[18] = test system: Capan-1, pancreatic adenocarcinoma; assay: Proliferation assay (MTS, 72 h), Capan-1; format: cell-based, human; conditions: Homo sapiens, CAPAN-1
Text: as §1, §2, §3

E. coli efflux del = assay: microbe, parasite or virus in culture; format: cell-based; conditions: Table 2 prints no unit; μM for compounds; antibiotics tested at 0.125–64 µg/mL
Protocol: (§4) Selected bacterial strains were Gram-negative E. coli, K. pneumoniae, A. baumannii and P. aeruginosa and Gram-positive S. aureus, S. pneumoniae, and E. faecalis. The synthesized compounds were prepared as 10 mM DMSO solutions and tested in a final concentration range of 0.2–100 µM [39].
(§5) Broth microdilution testing was performed according to CLSI (Clinical Laboratory Standards Institute) guidelines. The MIC (minimal inhibitory concentration) value was defined as the last tested concentration of the compound at which there was no visible growth of bacteria. Inoculums for each microorganism were prepared using the direct colony suspension method, where broth solutions that achieved turbidity equivalent to 0.5 McFarland standard were additionally diluted 100× with Ca adjusted MH media (Becton Dickinson, Franklin Lakes, NJ, USA). All of the test plates were incubated for 16–24 h at 37 °C.
(§6) Methods for dilution of antimicrobial susceptibility tests for bacteria that grow aerobically followed M07, 11th edition, 2018, and Clinical and Laboratory Standards Institute (CLSI) guidelines. Performance standards for antimicrobial susceptibility testing followed the M100, 28th edition, 2018.

E. faecalis ATCC 29212 = assay: Broth microdilution MIC, E. faecalis; format: cell-based; conditions: Enterococcus faecalis, ATCC29212; read-out: MIC against E. faecalis
Protocol: as §4, §5, §6

Row | SMILES | IC50 [1] [µM] | EC50 [2] [µM] | EC50 (Zika virus (Mr776)) [µM] | EC50 [3] [µM] | EC50 [4] [µM] | IC50 (NCI-H460, lung carcinoma) [µM] | IC50 [5] [µM] | EC50 [6] [µM] | EC50 [7] [µM] | EC50 [8] [µM] | IC50 [9] [µM] | IC50 [10] [µM] | EC50 [11] [µM] | EC50 [12] [µM] | CC50 (in vitro [13]) [µM] | CC50 (in vitro [14]) [µM] | IC50 (LN-229, glioblastoma) [µM] | IC50 [15] [µM] | CC50 (in vitro [16]) [µM] | EC50 (sindbis virus) [µM] | other results
1 | CC(C)Cn1c(/N=C/c2ccc(N(C)C)cc2)nc2ccc(C#N)cc21 [Compound 29, (E)-2-((4-(Dimethylamino)benzylidene)amino)-1-isobutyl-1H-benzo[d]imidazole-6-carbonitrile] | > 100 | > 100 | > 100 | > 100 | > 100 | > 100 | > 100 | > 100 | 79.8 | 94.1 | > 100 | 42.8 | > 100 | > 100 | > 100 | > 100 | > 100 | > 100 | > 100 | > 100 | melting point: 283 to 285 °C; EC50 [17]: > 100 µM; IC50 [18]: > 100 µM
2 | CCN(CC)c1ccc(/C=N/c2nc3ccc(C#N)cc3n2-c2ccccc2)c(O)c1 [Compound 41, (E)-2-((4-(Diethylamino)-2-hydroxybenzylidene)amino)-1-phenyl-1H-benzo[d]imidazole-6-carbonitrile] | 76.3 | > 100 | > 100 | > 100 | > 100 | > 100 | > 100 | > 100 | > 100 | > 100 | 35.2 | 49.6 | 89.5 | > 100 | > 100 | 71.6 | > 100 | > 100 | > 100 | > 100 | MIC E. coli efflux del (E. coli efflux del): >64; MIC (E. faecalis ATCC 29212): 32 µM (≈ 13.1 µg/mL); melting point: 111 to 114 °C; EC50 [17]: > 100 µM; IC50 [18]: 69.5 µM
3 | CN(C)c1ccc(/C=N/c2nc3ccc(C#N)cc3n2C)cc1 [Compound 34, (E)-2-((4-(Dimethylamino)benzylidene)amino)-1-methyl-1H-benzo[d]imidazole-6-carbonitrile] | > 100 | > 100 | > 100 | > 100 | 83.5 | > 100 | > 100 | > 100 | 82.8 | > 100 | > 100 | > 100 | > 100 | > 100 | > 100 | > 100 | > 100 | > 100 | > 100 | > 100 | EC50 [17]: > 100 µM; IC50 [18]: > 100 µM
4 | CC(C)Cn1c(/N=C/c2ccc([N+](=O)[O-])cc2)nc2ccc(C#N)cc21 [Compound 32, (E)-1-Isobutyl-2-((4-nitrobenzylidene)amino)-1H-benzo[d]imidazole-6-carbonitrile] | > 100 | > 100 | > 100 | > 100 | > 100 | > 100 | > 100 | > 100 | > 100 | > 100 | > 100 | > 100 | 68.7 | > 100 | 90.1 | > 100 | > 100 | > 100 | > 100 | > 100 | melting point: 277 to 279 °C; EC50 [17]: 38.5 µM; IC50 [18]: > 100 µM
